Measured values reported in patent US9216991B2 (Ares Trading S.A., priority 2012, dated 2015).
pIC50: −log10 of the molar value.

Biological target: T1, IRAK4 (Homo sapiens, UniProt Q9NWZ3)
T1 construct: His (N); TEV cleavage site (N)
T1 sequence (Q9NWZ3 1-460): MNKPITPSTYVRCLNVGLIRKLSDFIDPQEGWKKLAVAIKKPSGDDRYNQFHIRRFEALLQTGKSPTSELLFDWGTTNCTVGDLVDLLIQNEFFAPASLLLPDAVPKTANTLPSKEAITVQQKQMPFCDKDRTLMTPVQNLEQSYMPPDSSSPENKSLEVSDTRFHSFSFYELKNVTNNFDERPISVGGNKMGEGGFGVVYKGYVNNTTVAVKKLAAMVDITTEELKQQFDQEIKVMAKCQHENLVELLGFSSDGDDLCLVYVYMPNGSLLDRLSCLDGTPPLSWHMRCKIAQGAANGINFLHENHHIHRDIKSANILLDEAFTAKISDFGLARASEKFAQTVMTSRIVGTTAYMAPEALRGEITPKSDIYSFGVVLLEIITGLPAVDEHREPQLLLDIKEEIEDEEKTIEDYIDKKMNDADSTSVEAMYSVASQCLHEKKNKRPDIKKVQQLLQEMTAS
Experiment: IRAK4 Enzymatic Assay
Type: biochemical
Details: His-TEV-IRAK4 20 ng/well, ATP 2 μM, STK1-biotin peptide 300 nM, 3 hours at 30° C., FlashPlate radioactivity
How it was run: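 Radiometric FlashPlate readout: biotin-STK1 substrate (300 nM) captured on streptavidin after EDTA stop and washes. Reaction used His-TEV-IRAK4 (20 ng/well), 2 μM [^33P]-spiked ATP and compound (1 nM-20 μM), incubated 3 h at 30 °C in 50 mM HEPES pH 7.0, 10 mM MgCl2, 5 mM MnCl2, 2 mM DTT.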

First: CC(C(=O)N1CCOCC1)n1cc(-c2cnc(-c3cccc(-c4cnn(C)c4)c3)nc2)cn1 (stereo not shown) [Example 103, 2-(4-{2-[3-(1-Methyl-1H-pyrazol-4-yl)-phenyl]-pyrimidin-5-yl}-pyrazol-1-yl)-1-morpholin-4-yl-propan-1-one]
Second: CC(C)[C@H](N)C(=O)N1CCC(n2cc(-c3cnc(-c4cccc(-c5cnn(C)c5)c4)nc3)cn2)CC1 [Example 124, (S)-2-Amino-3-methyl-1-[4-(4-{2-[3-(1-methyl-1H-pyrazol-4-yl)-phenyl]-pyrimidin-5-yl}-pyrazol-1-yl)-piperidin-1-yl]-butan-1-one]
The pIC50 of the first is lower: 5.30 to 6.00 for the first, 6.00 to 7.00 for the second. The second is the more potent here.

`Cn1cc(-c2cccc(-c3ncc(-c4cnn(C5CCN(C(=O)C6CCOC6)CC5)c4)cn3)c2)cn1` (stereo not shown) [Example 104, [4-(4-{2-[3-(1-Methyl-1H-pyrazol-4-yl)-phenyl]-pyrimidin-5-yl}-pyrazol-1-yl)-piperidin-1-yl]-(tetrahydro-furan-3-yl)-methanone] and `Cn1cc(-c2cccc(-c3ncc(-c4cnn(C5CCN(C(=O)C6CCOCC6)CC5)c4)cn3)c2)cn1` [Example 107, [4-(4-{2-[3-(1-Methyl-1H-pyrazol-4-yl)-phenyl]-pyrimidin-5-yl}-pyrazol-1-yl)-piperidin-1-yl]-(tetrahydro-pyran-4-yl)-methanone] fall in the same range of pIC50: 6.00 to 7.00 for the first, 6.00 to 7.00 for the second.

`COCC(=O)N1CCC(n2cc(-c3cnc(-c4cccc(-c5cnn(C)c5)c4)nc3)cn2)CC1` [Example 105, 2-Methoxy-1-[4-(4-{2-[3-(1-methyl-1H-pyrazol-4-yl)-phenyl]-pyrimidin-5-yl}-pyrazol-1-yl)-piperidin-1-yl]-ethanone] and `COCCC(=O)N1CCC(n2cc(-c3cnc(-c4cccc(-c5cnn(C)c5)c4)nc3)cn2)CC1` [Example 109, 3-Methoxy-1-[4-(4-{2-[3-(1-methyl-1H-pyrazol-4-yl)-phenyl]-pyrimidin-5-yl}-pyrazol-1-yl)-piperidin-1-yl]-propan-1-one] fall in the same range of pIC50: 6.00 to 7.00 for the first, 6.00 to 7.00 for the second.

`Cn1cc(-c2cccc(-c3ncc(-c4cnn(C5CCN(C(=O)CO)CC5)c4)cn3)c2)cn1` [Example 106, 2-Hydroxy-1-[4-(4-{2-[3-(1-methyl-1H-pyrazol-4-yl)-phenyl]-pyrimidin-5-yl}-pyrazol-1-yl)-piperidin-1-yl]-ethanone] and `CCOCC(=O)N1CCC(n2cc(-c3cnc(-c4cccc(-c5cnn(C)c5)c4)nc3)cn2)CC1` [Example 111, 2-Ethoxy-1-[4-(4-{2-[3-(1-methyl-1H-pyrazol-4-yl)-phenyl]-pyrimidin-5-yl}-pyrazol-1-yl)-piperidin-1-yl]-ethanone] fall in the same range of pIC50: 6.00 to 7.00 for the first, 6.00 to 7.00 for the second.

`Cn1cc(-c2cccc(-c3ncc(-c4cnn(C5CCN(C(=O)C6CCCCO6)CC5)c4)cn3)c2)cn1` (stereo not shown) [Example 108, [4-(4-{2-[3-(1-Methyl-1H-pyrazol-4-yl)-phenyl]-pyrimidin-5-yl}-pyrazol-1-yl)-piperidin-1-yl]-(tetrahydro-pyran-2-yl)-methanone] and `CN1CCC[C@H]1C(=O)N1CCC(n2cc(-c3cnc(-c4cccc(-c5cnn(C)c5)c4)nc3)cn2)CC1` [Example 123, [4-(4-{2-[3-(1-Methyl-1H-pyrazol-4-yl)-phenyl]-pyrimidin-5-yl}-pyrazol-1-yl)-piperidin-1-yl]-((S)-1-methyl-pyrrolidin-2-yl)-methanone] fall in the same range of pIC50: 6.00 to 7.00 for the first, 6.00 to 7.00 for the second.

`Cn1cc(-c2cccc(-c3ncc(-c4cnn(C5C[C@H]6CC[C@@H](C5)N6)c4)cn3)c2)cn1` (stereo partly drawn) [Example 110, (1R,5S)-3-(4-{2-[3-(1-Methyl-1H-pyrazol-4-yl)-phenyl]-pyrimidin-5-yl}-pyrazol-1-yl)-8-aza-bicyclo[3.2.1]octane] and `Cn1cc(-c2cccc(-c3ncc(-c4cnn([C@@H]5CCNC5)c4)cn3)c2)cn1` [Example 116, 2-[3-(1-Methyl-1H-pyrazol-4-yl)-phenyl]-5-((R)-1-pyrrolidin-3-yl-1H-pyrazol-4-yl)-pyrimidine] fall in the same range of pIC50: 6.00 to 7.00 for the first, 6.00 to 7.00 for the second.

`CCOC1CC(N2CCC(n3cc(-c4cnc(-c5cccc(-c6cnn(C)c6)c5)nc4)cn3)CC2)C1(C)C` (stereo not shown) [Example 112, 5-{1-[1-(3-Ethoxy-2,2-dimethyl-cyclobutyl)-piperidin-4-yl]-1H-pyrazol-4-yl}-2-[3-(1-methyl-1H-pyrazol-4-yl)-phenyl]-pyrimidine] and `CO[C@@H]1COCCC1N1CCC(n2cc(-c3cnc(-c4cccc(-c5cnn(C)c5)c4)nc3)cn2)CC1` (stereo partly drawn) [Example 122, 5-{1-[1-((S)-3-Methoxy-tetrahydro-pyran-4-yl)-piperidin-4-yl]-1H-pyrazol-4-yl}-2-[3-(1-methyl-1H-pyrazol-4-yl)-phenyl]-pyrimidine] fall in the same range of pIC50: 6.00 to 7.00 for the first, 6.00 to 7.00 for the second.

`CN1CC(C(=O)N2CCC(n3cc(-c4cnc(-c5cccc(-c6cnn(C)c6)c5)nc4)cn3)CC2)CC1=O` (stereo not shown) [Example 113, 1-Methyl-4-[4-(4-{2-[3-(1-methyl-1H-pyrazol-4-yl)-phenyl]-pyrimidin-5-yl}-pyrazol-1-yl)-piperidine-1-carbonyl]-pyrrolidin-2-one] and `Cn1cc(-c2cccc(-c3ncc(-c4cnn(C5CCN(C(=O)C6CC(=O)C6)CC5)c4)cn3)c2)cn1` [Example 117, 3-[4-(4-{2-[3-(1-Methyl-1H-pyrazol-4-yl)-phenyl]-pyrimidin-5-yl}-pyrazol-1-yl)-piperidine-1-carbonyl]-cyclobutanone] fall in the same range of pIC50: 6.00 to 7.00 for the first, 6.00 to 7.00 for the second.

`Cn1cc(-c2cccc(-c3ncc(-c4cnn(C5CCN(C(=O)CC(F)(F)F)CC5)c4)cn3)c2)cn1` [Example 114, 3,3,3-Trifluoro-1-[4-(4-{2-[3-(1-methyl-1H-pyrazol-4-yl)-phenyl]-pyrimidin-5-yl}-pyrazol-1-yl)-piperidin-1-yl]-propan-1-one] and `Cn1cc(-c2cccc(-c3ncc(-c4cnn(C5CCN(C(=O)C(O)C(F)(F)F)CC5)c4)cn3)c2)cn1` (stereo not shown) [Example 115, 3,3,3-Trifluoro-2-hydroxy-1-[4-(4-{2-[3-(1-methyl-1H-pyrazol-4-yl)-phenyl]-pyrimidin-5-yl}-pyrazol-1-yl)-piperidin-1-yl]-propan-1-one] fall in the same range of pIC50: 6.00 to 7.00 for the first, 6.00 to 7.00 for the second.

`Cn1cc(-c2cccc(-c3ncc(-c4cnn(C5C[C@H]6CC[C@@H](C5)N6CC(O)C(F)(F)F)c4)cn3)c2)cn1` (stereo partly drawn) [Example 118, 1,1,1-Trifluoro-3-[(1R,5S)-3-(4-{2-[3-(1-methyl-1H-pyrazol-4-yl)-phenyl]-pyrimidin-5-yl}-pyrazol-1-yl)-8-aza-bicyclo[3.2.1]oct-8-yl]-propan-2-ol] and `CC(=O)N1[C@@H]2CC[C@H]1CC(n1cc(-c3cnc(-c4cccc(-c5cnn(C)c5)c4)nc3)cn1)C2` (stereo partly drawn) [Example 119, 1-[(1R,5S)-3-(4-{2-[3-(1-Methyl-1H-pyrazol-4-yl)-phenyl]-pyrimidin-5-yl}-pyrazol-1-yl)-8-aza-bicyclo[3.2.1]oct-8-yl]-ethanone] fall in the same range of pIC50: 6.00 to 7.00 for the first, 6.00 to 7.00 for the second.

`Cn1cc(-c2cccc(-c3ncc(-c4cnn(C5CCN(C(=O)C6CC(O)C6)CC5)c4)cn3)c2)cn1` (stereo not shown) [Example 120, (3-Hydroxy-cyclobutyl)-[4-(4-{2-[3-(1-methyl-1H-pyrazol-4-yl)-phenyl]-pyrimidin-5-yl}-pyrazol-1-yl)-piperidin-1-yl]-methanone] and `Cn1cc(-c2cccc(-c3ncc(-c4cnn([C@H]5CCNC5)c4)cn3)c2)cn1` [Example 125, 2-[3-(1-Methyl-1H-pyrazol-4-yl)-phenyl]-5-((S)-1-pyrrolidin-3-yl-1H-pyrazol-4-yl)-pyrimidine] fall in the same range of pIC50: 6.00 to 7.00 for the first, 6.00 to 7.00 for the second.
